Test results as given in patent US11613531B2, “Inhibitors of RHO associated coiled-coil containing protein kinase” (Kadmon Corporation, LLC, priority 2017, dated 2023).
Read-outs that look alike come from different tables or passages of the source.

How the values were obtained:
[1] = biological target: Recombinant ROCK2 (amino acids 1-552) (Homo sapiens (Human), UniProt O75116); assay: Z′-Lyte kinase assay, ROCK2; assay type: biochemical; details: for inhibition at 0.5 µM: 0.5 μM compound; for inhibition at 0.5 µM / inhibition at 1 µM: read-out: ROCK2 % inh. @ [conc]; for inhibition at 1 µM: 1 μM compound
In short: (§1)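 IC50s derive from nonlinear curve fits over a 9-point, 2-fold dilution series, with single-point inhibition at 1 μM expressed relative to DMSO. Activity of truncated human ROCK1 (residues 1-535) and ROCK2 (residues 1-552) measured with the Z′-Lyte kinase format.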

[2] = biological target: Recombinant ROCK1 (amino acids 1-535) (Homo sapiens (Human), UniProt Q13464); assay: Z′-Lyte kinase assay, ROCK1; assay type: biochemical; details: for IC50: 9 points 2-fold serial dilution; for inhibition at 0.5 µM: 0.5 μM compound, read-out: ROCK1 % inh. @ [conc]
In short: as §1

[3] = system: human ACTA2 gene promoter luciferase reporter in NIH3T3 cells; assay: NIH3T3 Acta2-promoter driven-luciferase assay; assay type: cell-based; details: read-out: NIH3T3 Acta2-luc, IC50
Description: NIH3T3 Cells Acta2-Promoter Driven-Luciferase Assay.
A NIH3T3 cell line stably expressing a luciferase reporter driven by the human ACTA2 gene promoter (−1000-1 bp) was established (NIH3T3-Acta2-luciferase). The cells were plated to confluence and treated with the test compounds plus TGFβ1 for 24 hr. Cells were then lysed and luciferase activity was measured using the LightSwitch luciferase kit from Active Motif.
In vitro activities for the compounds were measured with Z′-lyte kinase kit (ThermoFisher Scientific). The percent inhibition rate was calculated by normalizing the kinase activity value obtained with 1 μM compound treatment against DMSO control value and then applied to the formula, [1-(compound/DMSO)]×100%. IC50s were calculated using the nonlinear regression curve fit function of the GraphPad Prism software with kinase activities data measured with 9 points 2-fold serial dilution of compounds treatment. In cell pMLC IC50s were calculated with data obtained from A7R5 cell experiments. A7R5 cells were treated with 9 points 2-fold serial dilution of compounds and ppMlc (T18/S19) levels were determined to calculate cellular IC50 values of the compounds using the nonlinear regression curve fit function of the GraphPad Prism software. NIH3T3 cells stably expressing ACTA2-promoter-driven-luciferase were applied to measure ROCK compounds functional IC50s in cells. Cells were plated in 96 well plates to confluence and treated with 9 points serial dilution of compounds in combination with TGFβ1 for 24 hr. Luciferase activities were measured and compound's IC50s were calculated using the nonlinear regression curve fit function of the GraphPad Prism software.
ROCK inhibitors can be effectively rank ordered by ACTA2-promoter-driven-luciferase reporter cell assay. NIH3T3 cells stably expressing ACTA2-promoter-driven-luciferase were plated in 96 well plates to confluence and treated with 9 points serial dilution of compounds in combination with TGFβ1 for 24 hr. Luciferase activities were measured and compound's IC50s were calculated. By this assay multiple compounds of the invention gave IC50s under 200 nM.

[4] = system: ppMlc (T18/S19) levels in A7R5 cells; assay: A7R5 in-cell ELISA (pMLC); assay type: cell-based, Rat; details: Rattus norvegicus, A7R5, A7R5 cells; for inhibition at 1 µM: 1 μM compound; for inhibition at 1 µM / inhibition at 10 µM: read-out: pMLC % inh A7R5 @ [conc]; for inhibition at 10 µM: 10 μM compound
In short: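 Cellular IC50 came from a nonlinear regression fit of ppMlc (T18/S19) signal, read by colorimetric in-cell ELISA on fixed cells. Rat A7R5 aortic smooth muscle cells had been exposed for 90 min to compounds in 9-point 2-fold serial dilution, 24 h after seeding.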

[5] = 9 points 2-fold serial dilution
[6] = NIH3T3, 24 h, NIH3T3 cells, plus TGFβ1 for 24 hr
[7] = NIH3T3, 24 h, with TGFβ1, 24 hr

Recombinant ROCK2 (amino acids 1-552), sequence (O75116 1-552): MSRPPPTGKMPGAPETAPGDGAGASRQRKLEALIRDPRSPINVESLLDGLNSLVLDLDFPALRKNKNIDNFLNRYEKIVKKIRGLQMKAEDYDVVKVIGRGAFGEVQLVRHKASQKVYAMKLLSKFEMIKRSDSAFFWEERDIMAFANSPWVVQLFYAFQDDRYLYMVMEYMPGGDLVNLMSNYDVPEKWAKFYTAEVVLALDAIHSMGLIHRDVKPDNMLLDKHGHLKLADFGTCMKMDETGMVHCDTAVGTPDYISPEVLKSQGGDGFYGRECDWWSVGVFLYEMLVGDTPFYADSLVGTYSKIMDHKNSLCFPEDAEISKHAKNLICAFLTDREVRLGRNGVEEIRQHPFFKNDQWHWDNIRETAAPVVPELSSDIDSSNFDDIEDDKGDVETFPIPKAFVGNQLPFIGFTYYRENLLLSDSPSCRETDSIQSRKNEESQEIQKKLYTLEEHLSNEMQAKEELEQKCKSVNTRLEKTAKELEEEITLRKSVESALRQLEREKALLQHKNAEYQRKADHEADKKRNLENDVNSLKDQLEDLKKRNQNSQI
Recombinant ROCK1 (amino acids 1-535), sequence (Q13464 1-535): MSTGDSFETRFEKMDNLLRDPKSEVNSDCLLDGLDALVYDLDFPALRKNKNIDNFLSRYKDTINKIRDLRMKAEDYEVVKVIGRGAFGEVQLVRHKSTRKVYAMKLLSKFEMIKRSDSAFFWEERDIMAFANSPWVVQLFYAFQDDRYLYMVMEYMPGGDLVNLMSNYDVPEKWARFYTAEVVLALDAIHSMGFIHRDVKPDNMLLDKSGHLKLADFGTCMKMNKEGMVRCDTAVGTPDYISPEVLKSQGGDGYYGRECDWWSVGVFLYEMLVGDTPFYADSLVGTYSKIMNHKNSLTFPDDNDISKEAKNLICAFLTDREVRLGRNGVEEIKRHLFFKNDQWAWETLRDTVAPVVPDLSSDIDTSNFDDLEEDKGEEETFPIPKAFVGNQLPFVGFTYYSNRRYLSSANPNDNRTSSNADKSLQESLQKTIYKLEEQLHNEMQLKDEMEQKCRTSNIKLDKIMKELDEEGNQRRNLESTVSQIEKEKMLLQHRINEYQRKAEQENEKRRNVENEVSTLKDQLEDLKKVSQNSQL

Row | Compound | IC50 [1, 5] [nM] | IC50 [2] [nM] | IC50 [3, 6] [nM] | inhibition at 1 µM [4] [%] | IC50 ([4]; ppMlc (T18/S19)) [nM] | IC50 [1] [nM] | inhibition at 0.5 µM [1] [%] | inhibition at 0.5 µM [2] [%] | IC50 [3, 7] [nM] | IC50 [4] [nM] | inhibition at 10 µM [4] [%] | inhibition at 1 µM [1] [%] | IC50 ([3]; NIH3T3 cells, plus TGFβ1 for 24 hr) [nM]
1 | Cc1cc(Nc2ccc3[nH]ncc3c2)nc(N2C3CCC2CNC3)n1 [Example 209, N-(2-(3,8-diazabicyclo[3.2.1]octan-8-yl)-6-methylpyrimidin-4-yl)-1H-indazol-5-amine] | 34 | 5 | 332 | 53.2 | 47 | – | – | – | – | – | – | – | –
2 | c1cc(-c2cn[nH]c2)ccc1Nc1nc(N2C3CNCC2C3)nc2c1COCC2 [Example 317, N-(4-(1H-pyrazol-4-yl)phenyl)-2-(3,6-diazabicyclo[3.1.1]heptan-6-yl)-7,8-dihydro-5H-pyrano[4,3-d]pyrimidin-4-amine] | – | – | – | – | – | 38 | 75 | 70 | > 10000 | > 10000 | – | – | –
3 | Cc1cc(Nc2ccc3[nH]ncc3c2)nc(N2CCNC(C)C2)n1 (centres unmarked) [Example 204, N-(6-methyl-2-(3-methylpiperazin-1-yl)pyrimidin-4-yl)-1H-indazol-5-amine] | 85 | 20 | 1780 | – | 231 | – | – | – | – | – | 70 | – | –
4 | c1cc(Nc2ccc3[nH]ncc3c2)nc(N2CC3CC2CN3)n1 (centres unmarked) [Example 201, N-(2-(2,5-diazabicyclo[2.2.1]heptan-2-yl)pyrimidin-4-yl)-1H-indazol-5-amine] | 27 | 37 | 1640 | 50.1 | 168 | – | – | – | – | – | – | – | –
5 | CC1CNCCN(c2nccc(Nc3ccc4[nH]ncc4c3)n2)C1 (centres unmarked) [Example 237, N-(2-(6-methyl-1,4-diazepan-1-yl)pyrimidin-4-yl)-1H-indazol-5-amine] | 104 | 63 | 2350 | – | 423 | – | – | – | – | – | 68.2 | – | –
6 | c1cc(-c2cn[nH]c2)ccc1Nc1nc(N2C3CNCC2C3)nc2c1COC2 [Example 316, N-(4-(1H-pyrazol-4-yl)phenyl)-2-(3,6-diazabicyclo[3.1.1]heptan-6-yl)-5,7-dihydrofuro[3,4-d]pyrimidin-4-amine] | – | – | – | – | – | 27 | 85 | 90 | > 10000 | 2420 | – | – | –
7 | Fc1cnc(N2C3CNCC2C3)nc1Nc1ccc2[nH]ncc2c1 [Example 220, N-(2-(3,6-diazabicyclo[3.1.1]heptan-6-yl)-5-fluoropyrimidin-4-yl)-1H-indazol-5-amine] | 5.9 | 3.1 | 167 | 45.1 | 74 | – | – | – | – | – | – | – | –
8 | Cc1cc(Nc2ccc3[nH]ncc3c2)nc(N2C3CNCC2C3)n1 [Example 213, N-(2-(3,6-diazabicyclo[3.1.1]heptan-6-yl)-6-methylpyrimidin-4-yl)-1H-indazol-5-amine] | 1.6 | 0.2 | 230 | 34 | 60 | – | – | – | – | – | – | 101 | –
9 | COc1nc(N2C3CCC2CNC3)nc(Nc2ccc3[nH]ncc3c2)c1F [Example 319, N-(2-(3,8-diazabicyclo[3.2.1]octan-8-yl)-5-fluoro-6-methoxypyrimidin-4-yl)-1H-indazol-5-amine] | – | – | – | – | – | 1.1 | 100 | 98 | 59 | – | – | – | –
10 | c1cc(Nc2ccc3[nH]ncc3c2)nc(N2C3CNCC2C3)n1 [Example 200, N-(2-(3,6-diazabicyclo[3.1.1]heptan-6-yl)pyrimidin-4-yl)-1H-indazol-5-amine] | 1.6 | 28 | 1600 | – | 275 | – | – | – | – | – | 49.8 | – | –
11 | Fc1cnc(N2CCCNCC2)nc1Nc1ccc2[nH]ncc2c1 [Example 215, N-(2-(1,4-diazepan-1-yl)-5-fluoropyrimidin-4-yl)-1H-indazol-5-amine] | 37 | 40 | 1220 | – | 201 | – | – | – | – | – | 68.5 | – | 1780
12 | CC(=O)N1Cc2nc(N3C4CCC3CNC4)nc(Nc3ccc4[nH]ncc4c3)c2C1 [Example 314, 1-(4-((1H-indazol-5-yl)amino)-2-(3,8-diazabicyclo[3.2.1]octan-8-yl)-5,7-dihydro-6H-pyrrolo[3,4-d]pyrimidin-6-yl)ethan-1-one] | – | – | – | – | – | 80 | 94 | 81 | > 5000 | > 5000 | – | – | –
13 | Fc1cnc(N2CC3CC2CN3)nc1Nc1ccc2[nH]ncc2c1 (centres unmarked) [Example 219, N-(2-(2,5-diazabicyclo[2.2.1]heptan-2-yl)-5-fluoropyrimidin-4-yl)-1H-indazol-5-amine] | 41 | 18 | 613 | 46.6 | 77 | – | – | – | – | – | – | – | –
14 | COc1nc(N2C3CCC2CNC3)nc(Nc2ccc3[nH]ncc3c2)c1Cl [Example 321, N-(2-(3,8-diazabicyclo[3.2.1]octan-8-yl)-5-chloro-6-methoxypyrimidin-4-yl)-1H-indazol-5-amine] | – | – | – | – | – | 8 | 100 | 98 | 114 | 74 | – | – | –
15 | Cc1cc(Nc2ccc3[nH]ncc3c2)nc(N2CCNCC2C)n1 (centres unmarked) [Example 207, N-(6-methyl-2-(2-methylpiperazin-1-yl)pyrimidin-4-yl)-1H-indazol-5-amine] | 104 | 41 | 1260 | – | 351 | – | – | – | – | – | 52.3 | 91 | –
16 | CN(C)c1cc(Nc2ccc3[nH]ncc3c2)nc(N2C3CCC2CNC3)n1 [Example 336, 2-(3,8-diazabicyclo[3.2.1]octan-8-yl)-N^4-(1H-indazol-5-yl)-N^6,N^6-dimethylpyrimidine-4,6-diamine] | – | – | – | – | – | 3.6 | 103 | 99 | 116 | 25 | – | – | –
17 | CNC1CC2CC1CN2c1ncc(F)c(Nc2ccc3[nH]ncc3c2)n1 (centres unmarked) [Example 334, N-(5-fluoro-2-(5-(methylamino)-2-azabicyclo[2.2.1]heptan-2-yl)pyrimidin-4-yl)-1H-indazol-5-amine] | – | – | – | – | – | 121 | – | – | 1650 | 889 | – | – | –
18 | Cc1nc(N2CC3CC2CN3)nc(Nc2ccc3[nH]ncc3c2)c1F (centres unmarked) [Example 277, N-(2-(2,5-diazabicyclo[2.2.1]heptan-2-yl)-5-fluoro-6-methylpyrimidin-4-yl)-1H-indazol-5-amine] | – | – | – | 63.4 | – | 3.7 | – | – | 245 | 45 | – | – | –
19 | Cc1cc(Nc2ccc3[nH]ncc3c2)nc(N2CCNCC2)n1 [Example 205, N-(6-methyl-2-(piperazin-1-yl)pyrimidin-4-yl)-1H-indazol-5-amine] | 61 | – | 1280 | – | 415 | – | – | – | – | – | 55 | – | –
20 | Fc1cc2[nH]ncc2cc1Nc1nc(N2C3CCC2CNC3)ncc1Cl [Example 296, N-(2-(3,8-diazabicyclo[3.2.1]octan-8-yl)-5-chloropyrimidin-4-yl)-6-fluoro-1H-indazol-5-amine] | – | – | – | – | – | 110 | 90 | – | 3120 | 860 | – | – | –
21 | c1cc(-c2cn[nH]c2)ccc1Nc1nc(N2C3CNCC2C3)nc2c1CNC2 [Example 300, N-(4-(1H-pyrazol-4-yl)phenyl)-2-(3,6-diazabicyclo[3.1.1]heptan-6-yl)-6,7-dihydro-5H-pyrrolo[3,4-d]pyrimidin-4-amine] | – | – | – | – | – | – | 68 | – | > 10000 | > 10000 | – | – | –
22 | Cc1cc(Nc2ccc3[nH]ncc3c2)nc(N2CCC3NCC3C2)n1 (centres unmarked) [Example 135, N-(2-(3,7-diazabicyclo[4.2.0]octan-3-yl)-6-methylpyrimidin-4-yl)-1H-indazol-5-amine] | – | – | – | 48.4 | – | 9.7 | – | – | 2070 | 400 | – | – | –
